# Laboratory results from PMC8757610, “Design, synthesis, and biological evaluation of arylmethylpiperidines as Kv1.5 potassium channel inhibitors” (Journal of Enzyme Inhibition and Medicinal Chemistry, 2022).
# Where a name gives a salt, the structure may show the parent alone. Read-outs that look alike come from different tables or passages of the source.
# Assays:
# [1] = test system: Kv1.5; settings: in Figure 2, no reference given, cited from earlier work
# [2] = biological target: hKv1.5 potassium channel (Homo sapiens, UniProt P22460); assay: Whole-cell patch clamp assay on HEK 293 cells stably expressing hKv1.5; settings: hKv1.5 IC50, whole-cell patch clamp, HEK 293 cells expressing hKv1.5, 25 °C, mean ± SD
# [3] = test system: SD rats; format: in vivo, rat
# [4] = test system: guinea pigs; assay: Preliminary safety evaluation by 12-lead electrocardiogram; format: in vivo
# [5] = test system: SD rats; assay: CaCl2-ACh induced AF model; format: in vivo, rat
# [6] = Single-dose pharmacokinetics study; format: in vivo; settings: beagle dogs, mean ± SD, n = 6
# [7] = cumulative i.v. 3 × 10^−7 to 3 × 10^−5 mol/kg
# [8] = both sexes, beagle, dog, plasma, iv, 1 mg/kg, i.v. 1.00 mg/kg
# Sequence of hKv1.5 potassium channel (P22460 whole entry): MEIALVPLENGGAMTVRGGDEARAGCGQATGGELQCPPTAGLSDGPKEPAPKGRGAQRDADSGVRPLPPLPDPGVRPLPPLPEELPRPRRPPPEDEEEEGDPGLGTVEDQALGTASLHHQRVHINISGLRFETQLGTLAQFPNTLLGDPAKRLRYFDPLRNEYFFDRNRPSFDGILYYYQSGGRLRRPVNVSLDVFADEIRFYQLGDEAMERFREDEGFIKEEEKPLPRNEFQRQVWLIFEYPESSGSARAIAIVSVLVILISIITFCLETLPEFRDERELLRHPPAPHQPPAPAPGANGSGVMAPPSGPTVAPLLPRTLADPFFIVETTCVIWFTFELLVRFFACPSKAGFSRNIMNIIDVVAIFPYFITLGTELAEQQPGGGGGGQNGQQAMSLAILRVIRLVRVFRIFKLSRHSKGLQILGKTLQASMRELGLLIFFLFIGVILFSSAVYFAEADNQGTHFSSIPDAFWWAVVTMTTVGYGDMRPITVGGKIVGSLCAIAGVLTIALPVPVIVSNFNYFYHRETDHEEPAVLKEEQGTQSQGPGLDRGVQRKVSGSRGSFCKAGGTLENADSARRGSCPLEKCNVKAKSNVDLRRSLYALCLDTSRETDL
structure (smiles),measurement,setting,value
COc1ccc(CC(=O)NCc2ccccc2-c2ccccc2C(=O)NCCc2cccnc2)cc1 [AVE-0118],IC50,[1]; known Kv1.5 inhibitors,1.1 µM
"COc1ccc(NC(=O)C2CCN(Cc3ccccc3)CC2)cc1 [DDO-02001, 1-benzyl-N-(4-methoxyphenyl) piperidine-4-carboxamide]",IC50,[2],17.7 µM
"COc1ccc(NC(=O)C2CCN(Cc3nc4ccccc4o3)CC2)cc1 [DDO-02002, 1-(benzo[d]oxazol-2-ylmethyl)-N-(4-methoxyphenyl) piperidine-4-carboxamide]",IC50,[2],8.96 ± 1.15 µM
same,melting point,,190 to 194 °C
"Cl.Cl.c1ccc(CNC2CCN(Cc3nc4ccccc4o3)CC2)cc1 [DDO-02004, 1-(benzo[d]oxazol-2-ylmethyl)-N-benzylpiperidin-4-amine dihydrochloride]",IC50,[2],0.95 ± 0.13 µM
same,melting point,,> 250 °C
"COc1ccc(CNC2CCN(Cc3nc4ccccc4o3)CC2)cc1.Cl.Cl [DDO-02005, 1-(benzo[d]oxazol-2-ylmethyl)-N-(4-methoxybenzyl)piperidin-4-amine dihydrochloride]",increase of aconitine required to cause arrhythmia versus model group,[3]; 0.1 mg/kg i.v.,2%
same,increase of aconitine required to cause arrhythmia versus model group,[3]; 1 mg/kg i.v.,53%
same,increase of aconitine required to cause arrhythmia versus model group,[3]; 3 mg/kg i.v.,56%
same,increase of aconitine required to cause arrhythmia versus model group,[3]; 9 mg/kg i.v.,60%
same,overall preliminary safety compared with Azimilide,[4]; 12-lead electrocardiogram,safer than Azimilide
same,"effect on QT dispersion (QTd), compared with Azimilide",[4]; [7],less effect
same,"effect on QTcd, compared with Azimilide",[4]; [7],less effect
same,heart rate of guinea pigs,[4]; [7],slowed down obviously
same,"heart rate, compared with Azimilide",[4]; [7],no statistically significant differences
same,"prolonging QT interval, compared with Azimilide",[4]; [7],no statistically significant differences
same,"prolonging QTc interval, compared with Azimilide",[4]; [7],no statistically significant differences
same,atrial ERP (AERP),"[5]; AF rats, 2.5 mg/kg i.p.",increased to normal level
same,ventricle ERP (VERP),"[5]; AF rats, 2.5 mg/kg i.p.",increased to normal level
same,duration of AF,"[5]; rats, 0.625, 1.25, 2.5 mg/kg i.p., Day 4 to Day 7",shortened significantly
same,AF therapeutic effect compared with dronedarone,"[5]; rats, dronedarone 1.25 mg/kg i.p. as positive control",better than that of dronedarone
same,CL,"[6]; i.v. 1.00 mg/kg, 1 mg/kg",97.2 ± 24 mL/min/kg
same,CL,[6]; p.o. 1.25 mg/kg,608.5 ± 42.3 mL/min/kg
same,Cmax,"[6]; p.o. 1.25 mg/kg, 1.25 mg/kg",1.27 ± 0.40 ng/mL
same,t1/2,"[6]; p.o. 1.25 mg/kg, 1.25 mg/kg",6.25 ± 2.40 h
same,clearance,[6]; [8],97.2 mL/min/kg
same,half-life,[6]; [8],3.23 ± 1.07 h
same,Cmax,"[6]; both sexes, beagle, dog, plasma, iv, 1 mg/kg, i.v. 1.00 mg/kg, read-out: Cmax",90.2 ± 28.8 ng/mL
same,half-life,"[6]; both sexes, beagle, dog, plasma, po, 1.25 mg/kg, p.o. 1.25 mg/kg",6.25 h
same,Cmax,"[6]; both sexes, beagle, dog, plasma, po, 1.25 mg/kg, p.o. 1.25 mg/kg, read-out: Cmax",1.27 ng/mL
same,AUC(0-t),"[6]; both sexes, dog, plasma, iv, i.v. 1.00 mg/kg",178 ± 39.3 ng·h/mL
same,AUC(0-t),"[6]; both sexes, dog, plasma, po, p.o. 1.25 mg/kg",4.41 ± 0.69 ng·h/mL
same,IC50,[2],0.72 ± 0.08 µM
"Fc1ccc(CNC2CCN(Cc3nc4ccccc4o3)CC2)cc1 [DDO-02006, 1-(benzo[d]oxazol-2-ylmethyl)-N-(4-fluorobenzyl) piperidin-4-amine dihydrochloride]",IC50,[2],3.24 ± 0.29 µM
"COc1ccccc1CNC1CCN(Cc2nc3ccccc3o2)CC1 [DDO-02007, 1-(benzo[d]oxazol-2-ylmethyl)-N-(2-methoxybenzyl)piperidin-4-amine dihydrochloride]",IC50,[2],> 20 µM
"Cc1ccc(CNC2CCN(Cc3nc4ccccc4o3)CC2)cc1 [DDO-02008, 1-(benzo[d]oxazol-2-ylmethyl)-N-(4-methylbenzyl)piperidin-4-amine dihydrochloride]",IC50,[2],> 20 µM
"c1ccc(CCNC2CCN(Cc3nc4ccccc4o3)CC2)cc1 [DDO-02009, 1-(benzo[d]oxazol-2-ylmethyl)-N-phenethylpiperidin-4-amine hydrochloride]",IC50,[2],> 20 µM
CS(=O)(=O)Nc1cccc([C@H](c2ccc(F)cc2)C(c2cccnc2)c2cccnc2)n1 [MK-0448],IC50,[1]; known Kv1.5 inhibitor,0.0108 µM
Cc1ccc(S(=O)(=O)Nc2ccccc2C(=O)N(Cc2ccccc2)Cc2cccnc2)cc1 [S-0100176],IC50,[1]; known Kv1.5 inhibitors,0.7 µM
COc1ccc(CCO[C@@H]2CCCC[C@H]2N2CC[C@@H](O)C2)cc1OC [Vernakalant hydrochloride],IC50,[1]; known Kv1.5 inhibitors,13 µM
